A short description of the first experiment: Inhibition of [3H]nitrendipine binding to L-type calcium channel in guinea pig ventricular myocardium membranes.
On to `CCOC(=O)C1C(C)=NC(SC)=NC1c1cccc([N+](=O)[O-])c1` (configuration not stated), for which the Kd turned out to be 23 nM.

Experiment in the next experiment: as above
This is another data set of the same source.
For the compound `CSC1=NC(c2cccc([N+](=O)[O-])c2)C(C(=O)OC(C)C)=C(C)N1` (configuration not stated), the Kd was determined as 12 nM.
For the compound `CCOC(=O)C1=C(C)NC(SC)=NC1c1ccccc1C(F)(F)F` (configuration not stated), the Kd worked out at 35 nM.
Still for that read-out and setting: next, `CCOC(=O)C1=C(C)N=C(OC)NC1c1cccc([N+](=O)[O-])c1` (configuration not stated): 105 nM; `CCOC(=O)C1=C(C)NC(N(C)C)=NC1c1cccc([N+](=O)[O-])c1` (configuration not stated): 3400 nM.
Consider `COC(=O)C1=C(C)N=C(SC)NC1c1cccc([N+](=O)[O-])c1` (configuration not stated), for which the Kd was found to be 120 nM.
Regarding `CCC(C)OC(=O)C1=C(C)NC(SC)=NC1c1cccc([N+](=O)[O-])c1` (configuration not stated), the Kd stood at 2.6 nM.

Broadly, the Kd is a measure of binding affinity in units of concentration.
